The record followed here is US5444077A, “Ameliorant of cerebral circulation and optical isomer of NB-818, processes for its use” (Banyu Pharmaceutical Co., Ltd., priority 1987, dated 1995).

Assay [1] deals with vertebral artery. Nature of the assay: Effect of optical isomers to increase the blood flow of the vertebral artery in anesthetized beagle dogs (Pharmacological Test Example 6). Type of assay: in vivo, beagle dog. To be noted: intravenous. As for the experimental part:
(§1) Effect to increase the blood flow of the vertebral artery
(§2) A male or female beagle dog having a body weight of about 10 kg was anesthetized by subcutaneous administration of 35 mg/kg of sodium pentobarbital, and the level of anesthesia was maintained by continuous injection of from 4 to 6 mg/kg/hr of sodium pentobarbital.
The test was conducted by maintaining the blood gases under optimum conditions under artificial respiration. A drug was dissolved in a 0.9 wt % saline containing 10% by weight of polyethylene glycol and 10% by weight of ethanol, and a predetermined amount of the solution was intravenously injected to the beagle dog. Then, the blood flow, the blood pressure and the heart rate were measured.
The blood flow was measured by an electromagnetic flow meter by means of blood flow probes attached to the vertebral artery and the femoral artery of the beagle dog. The blood pressure was measured by a pressure transducer connected to a canule inserted to the left femoral artery of the beagle dog. Further, the heart rate was measured by a heart rate counter based on the pulse wave of blood pressure.
The levo-rotatory optical isomer of 2-carbamoyloxymethyl-4-(2,3-dichlorophenyl)-6-methyl-1,4-dihydropyridine-3,5-dicarboxylic acid 3-isopropyl ester 5-methyl ester will be hereinafter referred to simply as (-)-NB-818, and the dextro-rotatory optical isomer thereof will be referred to simply as (+)-NB-818.

Assay [2] relates to vertebral artery. The description is as above. Format: in vivo, beagle dog.
The subject of assay [3] is vertebral artery. The experiment in a line: Effect to increase the blood flow of the vertebral artery in anesthetized beagle dogs (Pharmacological Test Example 1). Type of assay: in vivo, beagle dog. As for the experimental part:
as §1, §2
The test was conducted by maintaining the blood gases under optimum conditions under artificial respiration. A drug was dissolved in a 0.9 wt % saline containing 10% by weight of polyethylene glycol and 10% by weight of ethanol, and a predetermined amount of the solution was intravenously or intraduodenally injected to the beagle dog. Then, the blood flow, the blood pressure and the heart rate were measured.
The blood flow was measured by an electromagnetic flow meter by means of blood flow probes attached to the vertebral artery and the femoral artery of the beagle dog. The blood pressure was measured by a pressure transducer connected to a canule inserted to the left femoral artery of the beagle dog.

Assay [4] relates to cerebral isochemia models of Mongolian gerbils. The experiment in a line: Effect to prolong the life in the cerebral ischemia models of Mongolian gerbils (Pharmacological Test Example 4). Type of assay: in vivo, Mongolian gerbil. To be noted: 0.01 mg/kg, intraperitoneal; control 100. As for the experimental part: Effect to prolong the life in the cerebral isochemia models of Mongolian gerbils
A male Mongolian gerbil having a body weight of about 70 g was anesthetized by intraperitoneal administration of 70 mg/kg of ketamine hydrochloride. Then, left and right common carotid arteries were exposed and closed by scorbil clips for 20 minutes. Then, the clips were removed to regain the blood flow. Thirty minutes later, a drug dissolved in a 0.9 wt % saline containing 10% by weight of polyethylene glycol 300 and 10% by weight of ethanol, was intraperitoneally administered. The effect to prolong the life was determined by observing mortality and the neurotic symptom during 8 hours or 24 hours from the administration of the drug.

In assay [5] the test system is cerebral regional blood flow. Nature of the assay: Effect to increase the cerebral regional blood flow in monkeys (Pharmacological Test Example 3). Format: in vivo, Rhesus monkey. To be noted: 0.01 mg/kg, intravenous. On the procedure:
Effect to increase the cerebral regional blood flow in monkeys
A male Rhesus monkey having a body weight of from 5.0 to 11.0 kg was anesthetized with ketamine hydrochloride (1 mg/kg by intravenous injection) and sodium pentobarbital (30 mg/kg by intraperitoneal injection), and an endotracheal tube was inserted for artificial respiration. Then, the animal's head was fixed to a stereotaxic apparatus. The cerebral blood flow was calculated from the hydrogen gas clearance curve measured by means of needle type electrodes for hydrogen gas clearance inserted to the cerebral cortex after incising the head and boring a hole in the occipital lobe.
The drug was dissolved in a 0.9 wt % saline containing 10% by weight of polyethylene glycol 300 and 10% by weight of ethanol, and the solution was intravenously administered.

Assay [6] concerns cerebral regional blood flow. Nature of the assay: Effect to increase the cerebral regional blood flow in rabbits (Pharmacological Test Example 2). Format: in vivo, rabbit. The note with it: 0.01 mg/kg, intravenous. On the procedure: A male rabbit having a body weight of about 3 kg was immobilized by intravenous injection of gallamine (2-3 mg/kg) and secured to an apparatus for fixing the brain position. Then, platinum electrodes for measuring hydrogen gas clearance were inserted to the top of cerebral cortex, to the center of the cerebellum and to the femoral muscle, and the blood flows were measured. The drug was dissolved in a 0.9 wt % saline containing 10% by weight of polyethylene glycol and 10% by weight of ethanol, and the solution was intravenously injected.

A further assay deals with amnesia induced by ECS. The experiment in a line: Effect against amnesia induced by ECS, passive avoidance, pretreatment with drug administration (Pharmacological Test Example 5). To be noted: 3 mg/kg p.o. Format: in vivo, rat. The text has this: By using male rats having a body weight of about 200 g, the antiamnesic effect was examined on the basis of one trial passive avoidance reaction as an index. Namely, a rat is put in a light chamber of an operant box comprising the light chamber and a dark chamber, and when the rat entered into the dark chamber, an electric stimulation (5 mA for 10 seconds) was applied from the floor and immediately an electric shock (30 mA, 0.75 second) (hereinafter referred to simply as ECS) was applied to the head of the rat. Two hours or 24 hours after the ECS, the rat was put in the light chamber, and the time until the rat entered from the light chamber to the dark chamber (the latent reaction time) was measured,
The drug was suspended in a 0.5 wt % methyl cellulose and orally administered three times at intervals of 24 hours so that the final administration was conducted one hour prior to ECS.

Molecules are shown by their SMILES. Some results are limits rather than exact numbers.

On to `COC(=O)C1=C(C)NC(COC(N)=O)=C(C(=O)OC(C)C)C1c1cccc(Cl)c1Cl` (single isomer, unassigned; (+)) [(+)-NB-818], for which, in the assay with vertebral artery [1] (0.1 mg/kg), the “Change in femoral artery blood flow” value is given as “+18.8%” and the “Change in heart rate” value is reported as “+3.8%”. Besides, in the assay with vertebral artery [2] (0.1 mg/kg, intravenous), the “Change in blood pressure” value was -8.1%, the “Change in vertebral artery blood flow” value is recorded as “+56.8%” and the “Effective period (Half-life period)” value was 15.5 min.

With `COC(=O)C1=C(C)NC(COC(N)=O)=C(C(=O)OC(C)C)C1c1cccc(Cl)c1Cl` (single isomer, unassigned; (-)) [(-)-NB-818, levo-rotatory optical isomer of 2-carbamoyloxymethyl-4-(2,3-dichlorophenyl)-6-methyl-1,4-dihydropyridine-3,5-dicarboxylic acid 3-isopropyl ester 5-methyl ester], in the assay on vertebral artery [1] (0.01 mg/kg), the “Change in femoral artery blood flow” value is “+3.3%”, the “Change in heart rate” value is “+3.4%”, the “Change in vertebral artery blood flow” value is “+123.2%” and the “Effective period (Half-life period)” value worked out at 44 min. Further, the “Change in blood pressure” value in the assay with vertebral artery [2] (0.01 mg/kg, intravenous) is listed as -26.6%.

For `COC(=O)C1=C(C)NC(COC(N)=O)=C(C(=O)OC)C1c1cccc(Cl)c1Cl` (centres unmarked) [Compound A, 2-Carbamoyloxymethyl-4-(2,3-dichlorophenyl)-6-methyl-1,4-dihydropyridine-3,5-dicarboxylic acid 3,5-dimethyl ester], in the assay with vertebral artery [3] (0.01 mg/kg iv), the “Change in blood pressure” value is on record as -13%, the “Change in femoral artery blood flow” value is “+14%”, the “Change in vertebral artery blood flow” value is “+76%” and the “Effective period (Half-life period)” value is recorded as 9 min.

In the case of `CCOC(=O)C1=C(COC(N)=O)NC(C)=C(C(=O)OC)C1c1cccc(Cl)c1Cl` (centres unmarked) [Compound B, 2-Carbamoyloxymethyl-4-(2,3-dichlorophenyl)-6-methyl-1,4-dihydropyridine-3,5-dicarboxylic acid 3-ethyl ester 5-methyl ester], in the assay on vertebral artery [3] (0.01 mg/kg iv), the “Change in blood pressure” value is given as -14%, the “Change in femoral artery blood flow” value is “+16%”, the “Change in vertebral artery blood flow” value is reported as “+50%” and the “Effective period (Half-life period)” value worked out at 36 min.

Regarding `CCCOC(=O)C1=C(COC(N)=O)NC(C)=C(C(=O)OC)C1c1cccc(Cl)c1Cl` (centres unmarked) [Compound C, 2-Carbamoyloxymethyl-4-(2,3-dichlorophenyl)-6-methyl-1,4-dihydropyridine-3,5-dicarboxylic acid 3-propyl ester 5-methyl ester], in the assay on vertebral artery [3] (0.01 mg/kg iv), the “Change in blood pressure” value is -15%, the “Change in femoral artery blood flow” value was “+20%”, the “Change in vertebral artery blood flow” value is “+95%” and the “Effective period (Half-life period)” value is 42 min.

Consider `CCCCOC(=O)C1=C(COC(N)=O)NC(C)=C(C(=O)OC)C1c1cccc(Cl)c1Cl` (centres unmarked) [Compound D, 2-Carbamoyloxymethyl-4-(2,3-dichlorophenyl)-6-methyl-1,4-dihydropyridine-3,5-dicarboxylic acid 3-butyl ester 5-methyl ester], for which, in the assay with vertebral artery [3] (0.01 mg/kg iv), the “Change in blood pressure” value is recorded as -14%, the “Change in femoral artery blood flow” value is listed as “+13%”, the “Change in vertebral artery blood flow” value is on record as “+80%” and the “Effective period (Half-life period)” value came to 44 min.

As to `COC(=O)C1=C(C)NC(C)=C(C(=O)OCCN(C)Cc2ccccc2)C1c1cccc([N+](=O)[O-])c1` (centres unmarked) [Nicardipine, nicardipine], in assay [4], the “Mortality, 0-8 hours” value is 83.3% and the “Mortality, 0-24 hours” value came out at 91.7%. Moreover, in assay [5], the “Change in blood pressure” value is given as -24%, the “Change in cerebral cortex blood flow” value is “+16%”, the “Change in heart rate” value is on record as “+18%” and the “Effective period (Half-life period)” value is listed as below 30 min.

On to `COCCOC(=O)C1=C(C)NC(C)=C(C(=O)OC(C)C)C1c1cccc([N+](=O)[O-])c1` (centres unmarked) [Nimodipine, nimodipine], for which, in assay [4], the “Mortality, 0-8 hours” value came to 83.3% and the “Mortality, 0-24 hours” value worked out at 91.7%. Further, in the assay with vertebral artery [3] (0.3 mg/kg id (intraduodenal)), the “Change in blood pressure” value is given as -29%, the “Change in femoral artery blood flow” value is reported as “+75%”, the “Change in vertebral artery blood flow” value was “+102%” and the “Effective period (Half-life period)” value is given as 150 min. Moreover, in assay [6], the “Blood flow change, cerebellum blood flow” value was “+55%”; the “Blood flow change, cerebral blood flow” value is recorded as “+68%”; the “Blood flow change, femoral muscle blood flow” value is given as -5%; the “Effective period (Half-life period)” value was determined as 20.6 min. The “Latent reaction time, acquisition test” value with amnesia induced by ECS (control 8.6 ± 1.3) was found to be 9.6 ± 1.3 s. Moreover, the “Latent reaction time, 2 hours later” value in the assay with amnesia induced by ECS (control 49.2 ± 8.1, * P < 0.05 vs control) was 103.9 ± 22.2 s. The “Latent reaction time, 24 hours later” value in the assay on amnesia induced by ECS (control 85.6 ± 22.0, * P < 0.05 vs control) turned out to be 132.1 ± 25.5 s. In the assay on vertebral artery [2] (0.3 mg/kg, intraduodenal), the “Change in blood pressure” value is given as -29%, the “Change in femoral artery blood flow” value is “+75%”, the “Change in heart rate” value is reported as -23% and the “Change in vertebral artery blood flow” value is “+102%”. Also, the “Effective period (Half-life period)” value with vertebral artery [2] (0.3 mg/kg, intraduodenal) stood at 150 min.
